Results taken from patent US20210401708A1, “Skin Anti-Aging Composition Containing Irilin B” (PHYTO CORPORATION INC., priority 2018, published 2021).

How the values were obtained:
Human skin keratinocytes = assay: Keratinocyte differentiation promoting effect; format: cell-based; conditions: for Cell differentiation promoting effect (%): vs distilled water (0%)
Experimental: Human skin keratinocytes (Korean Cell Line Bank) were seeded in the CO2 incubation flask in which DMEM containing 10% FBS was placed. After the cells were grown to a confluency of about 80%, Irilin B at different concentrations (5, 10, 20, 50, 100 μg/ml) were added to the cells, followed by incubation for 3 days. Thereafter, the cells were treated with a reduction modifier, such as sodium dodecyl sulfate (SDS) and β-mercaptoethanol, to remove proteins. After the treatment, the remaining keratinocyte layer was suspended in distilled water, and then the absorbance was measured at 310 nm to analyze the peptide concentration. The increase by each sample was compared on the basis of the negative control, distilled water (0%). In the positive control, the cells were treated with 10 nM TGF-β known as a cell differentiation factor. All the tests of keratinocyte differentiation promoting effect were repeatedly carried out three times. The absorbance at 310 nm is expressed as a mean and standard deviation, and the cell differentiation promoting effect is expressed, using the following calculation formula, as an average value (%), in Table 4.
Cell differentiation promoting effect (%)=(absorbance value at 310 nm in test sample−absorbance value at 310 nm in negative control)×100 [Calculation Formula]

[1] = system: Collagenase isolated from mouse pancreases; assay: Measurement of anti-collagenase activity; format: biochemical
Experimental: Collagenase, used in the measurement of enzyme activity, was isolated from mouse pancreases. The synthetic peptide, N-(3-[2-Furyl]acryloyl)-Leu-Gly-Pro-Ala, was used as a substrate compound for an enzymatic reaction. A solution containing 50 mM Tricine, 10 mM CaCl2.H2O, and 400 mM NaCl (pH 7.5) dissolved therein was used as a buffer solution. The synthetic substrate was dissolved to a concentration of […] in the buffer solution, and then finally diluted to 75 μM. Collagenase was dissolved to a concentration of 1 unit/ml in tertiary distilled water at 4° C. Upon the test, the collagenase diluted to a final concentration of 0.05 unit/ml in the buffer solution was used. […] In addition, the concentration of retinol (Sigma Co.), which was a positive control known as an anti-collagenase substance, was 10 μg/ml or 20 μg/ml in the test. The reaction was carried out in 96-well UV plates (Corning Co.) at room temperature for 10 minutes. The absorbance was measured at 345 nm at intervals of 1 minute using a microplate spectrophotometer (Bio-Rad). The enzyme activity was determined by obtaining the maximal slope of absorbance over time. All enzymatic reactions were repeatedly carried out three times, and expressed as average values. The anti-collagenase activity was calculated as below:
Anti-collagenase activity (%)=[(absolute value of slope in control−absolute value of slope in test sample)/absolute value of slope in control]×100 [Calculation Formula]

[2] = system: hyaluronic acid synthase 2 (HAS2); assay: Expression level of skin moisturizing factor HAS2 in UVA-irradiated HaCaT cells (RT-PCR); format: cell-based, human; conditions: UVA 5 J/cm^2, 10, 20, 40 μg/ml, 24 hours
Experimental: (§1) In order to investigate the expression levels of aquaporin 3 (AQP3) and hyaluronic acid synthase 2 (HAS2), which are moisturizing factors involved in the migration of cell moisture, the test was performed using the human skin keratinocytes HaCaT cells (Korean Cell Line Bank). The HaCaT cells were incubated in Dulbecco's modified Eagle's medium (DEME, Gibco 1210-0038) containing 10% FBS. Cell incubation was carried out using a 5% CO2 incubator at 37° C. After the cells were treated with Irilin B and ultraviolet light (aging treatment: UVA: 5 J/cm^2), the levels of AQP3 and HAS2 expressed in the cells were measured. The expression levels were measured by extracting RNA from the HaCaT cells and performing real-time polymerase change reaction (RT-PCR). The test substance Irilin B was treated after UVA irradiation. Irilin B was in advance prepared into a 10 mg/ml stock solution by addition of DMEM. Upon the test, the cells were treated with the stock solution diluted to 1/1,000 to 1/500. […]
(§2) The gene expression test (RNA extraction and real-time polymerase chain reaction (PCR)) was performed in the following order:
(§3) i) RNA was extracted using TRIzol Reagent (Gibco, USA).
(§4) ii) The cDNA synthesis from the extracted RNA was performed using the ReverTra Ace reverse transcriptase kit (Toyobo, USA). […]

aquaporin 3 (AQP3) = assay: Expression level of skin moisturizing factor AQP3 in UVA-irradiated HaCaT cells (RT-PCR); format: cell-based, human
Experimental: as §1, §2, §3, §4

[3] = target: T1, elastase isolated from human leukocytes (Homo sapiens, UniProt P08246); assay: Measurement of anti-elastase activity; format: biochemical
T1 construct: The elastase isolated from human leukocytes were used; from tissue; host or cells: human leukocytes
T1 sequence (P08246 30-267): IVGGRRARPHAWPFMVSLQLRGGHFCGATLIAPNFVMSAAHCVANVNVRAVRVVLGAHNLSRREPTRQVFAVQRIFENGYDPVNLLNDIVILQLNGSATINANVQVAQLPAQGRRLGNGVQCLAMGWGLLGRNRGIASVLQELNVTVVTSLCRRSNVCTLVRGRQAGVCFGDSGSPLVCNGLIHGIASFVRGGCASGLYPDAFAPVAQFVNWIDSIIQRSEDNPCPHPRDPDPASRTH
Experimental: The anti-elastase activity (elastase being an elastin degradation enzyme) was tested as below. The elastase isolated from human leukocytes were used. The synthetic oligopeptide, MeOSuc-Ala-Ala-Pro-Val-pNA, was used as a substrate of an enzyme reaction. A 100 mM Tris (pH 7.5) solution was used as a buffer solution. Elastase was finally used at 0.2 mU using the buffer solution. In addition, the synthetic substrate of elastase was made into a 100 mM solution using […], and then diluted to a final concentration of 0.5 mM in the buffer solution. […] The concentration of quercetin (Sigma Co.), which was a positive control known as an anti-elastase substance, was 10 μg/ml or 20 μg/ml in the test. The reaction was carried out in 96-well UV plates (Corning Co.) at room temperature for 20 minutes. The absorbance was measured at 405 nm at intervals of 1 minute using a microplate spectrophotometer (Bio-Rad). The enzyme activity was determined by obtaining the maximal slope of absorbance over time. All enzymatic reactions were repeatedly carried out three times, and expressed as average values. The […] was calculated as below:
Anti-elastase activity (%)=[(absolute value of slope in control−absolute value of slope in test sample)/absolute value of slope in control]×100 [Calculation Formula]

[4] = both at 20 μg/ml, same conditions

Row | Compound | Anti-collagenase activity (%) ([1]; 10 μg/ml) | Enzyme activity (Absolute value of maximal slope of absorbance over time at 345 nm) ([1]; 10 μg/ml) | Anti-collagenase activity (%) ([1]; 20 μg/ml) | Enzyme activity (Absolute value of maximal slope of absorbance over time at 345 nm) ([1]; 20 μg/ml) | Enzyme activity (Absolute value of maximal slope of absorbance over time at 405 nm) ([3]; 10 μg/ml) | inhibition at 10 µg/mL ([3]; 10 μg/ml) | Enzyme activity (Absolute value of maximal slope of absorbance over time at 405 nm) ([3]; 20 μg/ml) | inhibition at 20 µg/mL ([3]; 20 μg/ml) | further results
1 | transforming growth factor-β (TGF-β) |  |  |  |  |  |  |  |  | Cell differentiation promoting effect (%) (Human skin keratinocytes; 10 nM): 144.7%
2 | CC1=C(/C=C/C(C)=C/C=C/C(C)=C/CO)C(C)(C)CCC1 [Retinol, reference compound] | 17.28 ± 0.85% | 0.67 | 30.86% | 0.56 |  |  |  |  | 
3 | COc1c(O)cc2occ(-c3ccccc3O)c(=O)c2c1O [Irilin B, 5,7,2′-trihydroxy-6-methoxyisoflavone] | 49.38% | 0.41 | 62.96% | 0.30 | 0.72 | 42.9% | 0.54 | 57.1% | Cell differentiation promoting effect (%) (Human skin keratinocytes; 10 μg/ml, 3 days): 28.2%; Cell differentiation promoting effect (%) (Human skin keratinocytes; 20 μg/ml, 3 days): 46.7%; Cell differentiation promoting effect (%) (Human skin keratinocytes; 50 μg/ml, 3 days): 95.3%; cell differentiation promoting effect compared with positive control (in words) (Human skin keratinocytes; 100 μg/ml vs TGF-β 10 nM): equivalent to the cell differentiation factor TGF-β (10 nM); Cell differentiation promoting effect (%) (Human skin keratinocytes; 100 μg/ml, 3 days): 142.4%; differentiation of keratinocytes (in words) (Human skin keratinocytes; 5, 10, 20, 50, and 100 μg/ml): promoted the differentiation of keratinocytes; Anti-collagenase activity (%) ([1]; 5 μg/ml): 33.33%; Enzyme activity (Absolute value of maximal slope of absorbance over time at 345 nm) ([1]; 5 μg/ml): 0.54; anti-collagenase activity compared with retinol [1, 4]: about 2.05 fold; expression of HAS2 after UVA irradiation (FIG. 2) [2]: again restored to a level in the normal control; expression level of AQP3 after UVA irradiation (FIG. 1) (aquaporin 3 (AQP3); UVA 5 J/cm^2, 40 μg/ml): again increased to a level in the control irradiated without UVA; expression of AQP3 after UVA irradiation (FIG. 1) (aquaporin 3 (AQP3); UVA 5 J/cm^2, 10, 20, 40 μg/ml, 24 hours): restored the UVA-reduced level of AQP3 in a dose dependent manner; Enzyme activity (Absolute value of maximal slope of absorbance over time at 405 nm) ([3]; 5 μg/ml): 0.85; inhibition at 5 µg/mL ([3]; 5 μg/ml): 32.5%; anti-elastase activity compared with quercetin [3, 4]: about 1.47 fold
4 | O=c1c(O)c(-c2ccc(O)c(O)c2)oc2cc(O)cc(O)c12 [Quercetin, quercetin, reference compound] |  |  |  |  | 0.88 | 30.2 ± 3.14% | 0.77 | 38.9% | 
